Test results taken from patent publication US7456292B2, “Hydroxamic acid-containing amino acid derivatives” (Bexel Pharmaceuticals, Inc., priority 2005, dated 2008).
Read-outs that look alike come from different tables or passages of the source.

How the values were obtained:
[1] = biological target: T1, Human recombinant TACE (Homo sapiens, UniProt P78536); assay: TACE enzyme inhibition; format: biochemical
T1 construct: purchased R&D System 930-ADB; host or cells: Sf21 cells
Text: Tumor necrosis factor-α converting enzyme (TACE/ADAM-17) is responsible for the release of TNF-α, a potent proinflammatory cytokine associated with many chronic debilitating diseases such as rheumatoid arthritis and multiple sclerosis. TNF-α also induces angiogenesis, promotes fibroblast proliferation and can combine with receptors on selected tumor cells to induce cell lysis. TACE is also implicated in amyloid precursor protein secretion. Human recombinant TACE expressed in Sf21 cells (R&D System, 930-ADB) is used. Test compound and/or vehicle is incubated with the enzyme (25 ng/ml) and 10 μM Mca-P-L-A-Q-A-V-Dpa-R-S-S-S-R-NH2 (SEQ. ID NO. 3) in Modified Tris-buffer pH 9.0 for 30 minutes at 25° C. Enzyme activity is determined spectrofluorimetrically by measuring the formation of fluorescent Mca-P-L-A-Q-A-NH2 (SEQ. ID NO. 4). Compounds are screened at 10 μM.

[2] = biological target: T2, MMP-1 (Homo sapiens, UniProt P03956); assay: MMP-1 enzyme inhibition; format: biochemical
T2 construct: purchased Calbiochem 444208; host or cells: human rheumatoid synovial fibroblast (natural source)
T2 sequence (P03956 100-469): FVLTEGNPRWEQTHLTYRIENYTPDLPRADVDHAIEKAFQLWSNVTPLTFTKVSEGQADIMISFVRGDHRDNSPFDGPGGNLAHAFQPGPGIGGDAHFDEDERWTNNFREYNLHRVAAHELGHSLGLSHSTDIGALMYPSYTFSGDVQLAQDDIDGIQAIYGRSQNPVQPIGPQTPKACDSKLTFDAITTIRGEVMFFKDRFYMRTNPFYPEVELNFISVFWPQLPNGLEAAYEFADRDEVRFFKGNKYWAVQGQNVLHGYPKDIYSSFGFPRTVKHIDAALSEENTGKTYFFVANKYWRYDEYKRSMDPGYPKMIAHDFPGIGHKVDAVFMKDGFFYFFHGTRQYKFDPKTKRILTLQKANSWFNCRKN
Procedure: The enzyme MMP-1 (interstitial collagenase; EC 3.4.24.7, human rheumatoid synovial fibroblast, Calbiochem Cat. 444208) is used. MMP-1 is first activated with APMA for 60 minutes at 37° C. Test compound and/or vehicle is then preincubated for 60 minutes at 37° C. with the active enzyme ([…]) in a reaction mixture containing 50 mM MOPS (pH 7.2), 10 mM CaCl2 and 10 μM ZnCl2. The reaction is initiated by addition of Mca-Pro-Leu-Gly-Leu-Dpa-Ala-Arg-NH2 (SEQ. ID NO. 1) (4 μM) and incubated for 120 minutes at 37° C. The N-terminal protecting group Mca is 7-methoxycoumarin-4-yl acetyl. The amino acid Dpa is N^3-(2,4-dinitrophenyl)-L-diaminopropanoyl. Enzyme activity is determined spectrofluorometrically by measuring the formation of fluorescent Mca-Pro-Leu-Gly (SEQ. ID NO. 2). Compounds are screened at 10 μM.

[3] = tested on: TNF-α; assay: TNF-α secretion following LPS stimulation of mouse spleenic macrophages; format: cell-based; conditions: Macrophage, LPS stimulated mouse spleenic macrophages, read-out: Mice Spleen Cells (% Inhibition) TNF-α
[4] = biological target: T3, Phosphodiesterase type-3 (PDE3) (Homo sapiens, UniProt Q14432); assay: PDE-3 enzyme inhibition; format: biochemical
T3 construct: from tissue; host or cells: human platelets
T3 sequence (Q14432 whole entry): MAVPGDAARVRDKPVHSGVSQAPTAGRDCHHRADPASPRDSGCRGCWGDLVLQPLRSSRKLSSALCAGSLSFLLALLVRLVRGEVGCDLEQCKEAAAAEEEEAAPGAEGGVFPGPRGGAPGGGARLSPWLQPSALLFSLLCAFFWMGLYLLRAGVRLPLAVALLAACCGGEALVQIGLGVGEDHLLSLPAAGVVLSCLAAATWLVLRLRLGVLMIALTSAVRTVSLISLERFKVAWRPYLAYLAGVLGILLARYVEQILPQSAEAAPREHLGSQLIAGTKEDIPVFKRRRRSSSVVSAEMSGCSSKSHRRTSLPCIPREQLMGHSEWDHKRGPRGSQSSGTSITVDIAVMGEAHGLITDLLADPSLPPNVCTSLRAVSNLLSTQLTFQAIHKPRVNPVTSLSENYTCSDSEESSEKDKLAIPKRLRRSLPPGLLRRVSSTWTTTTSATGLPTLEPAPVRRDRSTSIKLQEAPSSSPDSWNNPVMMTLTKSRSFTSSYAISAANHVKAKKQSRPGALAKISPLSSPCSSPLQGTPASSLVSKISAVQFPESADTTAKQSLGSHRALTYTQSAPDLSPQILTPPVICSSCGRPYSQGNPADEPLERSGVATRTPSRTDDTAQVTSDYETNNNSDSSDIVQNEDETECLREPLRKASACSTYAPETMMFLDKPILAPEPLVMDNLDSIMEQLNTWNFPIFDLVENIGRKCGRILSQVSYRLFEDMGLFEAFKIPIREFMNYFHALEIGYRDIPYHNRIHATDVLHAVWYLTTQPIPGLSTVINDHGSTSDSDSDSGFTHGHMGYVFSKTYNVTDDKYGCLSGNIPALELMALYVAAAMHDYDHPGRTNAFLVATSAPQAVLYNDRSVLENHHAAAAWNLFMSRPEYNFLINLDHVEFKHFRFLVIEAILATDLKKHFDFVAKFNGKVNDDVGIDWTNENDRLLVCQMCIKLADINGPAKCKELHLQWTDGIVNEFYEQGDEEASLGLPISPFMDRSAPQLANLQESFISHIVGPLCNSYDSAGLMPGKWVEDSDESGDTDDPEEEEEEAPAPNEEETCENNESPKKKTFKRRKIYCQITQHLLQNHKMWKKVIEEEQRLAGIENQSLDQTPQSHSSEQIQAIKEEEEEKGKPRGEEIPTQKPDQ

[5] = tested on: T cell proliferation; assay: Inhibition of T cell proliferation; format: cell-based, mice; conditions: Mus musculus, T-cell, 10 μM
Procedure: SJL mice were immunized with keyhole limpet hemocyanin (KLH) in complete Freund's adjuvant (CFA). 12 days later regional lymph nodes were isolated and a proliferative response to KLH in the presence or absence of drug was performed (in presence of 3H thymidine). The results are expressed at Stimulation index (CPM+antigen/CPM no antigen). Similarly, mitogen induced concanavalin A (CON-A), IL-4, IL-2 induced T cell proliferation was measured in presence of compounds are shown in Table VI.

[6] = tested on: Collagen Induced Arthritis Model; assay: Collagen induced arthritis model; format: in vivo; conditions: male DBA/1 Lac mice, oral 50 mg/kg daily
Procedure: Arthritis induced in male DBA/1 Lac mice with bovine collagen (100 μg/mouse). Booster dose was given on Day 21 and started treatment when clinical score was about 2. […] Dexamethasone was kept as positive control. Severity of each paw score was defined from 0=no erythma to 4=severe arthritis for the swollen paws with a maximum possible score of 16 for 4 paws (4×4) in one animal.

[7] = tested on: TNF-α; assay: LPS induced sepsis model in mice, serum TNF-α; format: in vivo; conditions: Mus musculus; SW mice, oral 50 mg/kg body weight one hour before LPS, serum after 90 min
Procedure: (§1) SW mice were orally treated with vehicle, dexamethasone (5 mg/kg) and compounds at a dose of 50 mg/kg body weight one hour before LPS injection (10 μg/mouse, ip) and blood was collected after 90 min and measured serum TNF-α and IL-6 levels by ELISA.

[8] = tested on: IL-6; assay: LPS induced sepsis model in mice, serum IL-6; format: in vivo; conditions: Mus musculus; SW mice, oral 50 mg/kg body weight one hour before LPS, serum after 90 min
Procedure: as §1

[9] = tested on: IL-6; assay: LPS induced IL-6 in hPBMC; format: cell-based; conditions: Homo sapiens, LPS 1 μg/mL 24 hours
Procedure: (§2) Human PBMC monocyte cells were cultured and incubated with compounds at different concentrations. Cells were then challenged with lipopolysaccharides (LPS) at a concentration of (1 μg/mL) for 24 hours. Cell supernatants were then analyzed for the presence of TNF-α, IL-6 and IL-1β cytokines by antibody directed enzyme-linked immunoassay. Dexamethasone was used as a positive control in the experiments.

[10] = tested on: IL-1β; assay: LPS induced IL-1β in hPBMC; format: cell-based; conditions: Homo sapiens, LPS 1 μg/mL 24 hours
Procedure: as §2

[11] = tested on: Phosphodiesterase type 4 (PDE4); assay: PDE-4 enzyme inhibition; format: biochemical, human
[12] = tested on: TNF-α; assay: LPS induced TNF-α in hPBMC; format: cell-based; conditions: Homo sapiens; hPBMC, 10 μM, LPS 1 μg/mL 24 hours; * average of two experiments; read-out: Inhibition (%) TNF-α
Procedure: as §2

[13] = biological target: T4, MMP-9 (Homo sapiens, UniProt P14780); assay: MMP-9 enzyme inhibition; format: biochemical
T4 construct: purchased Calbiochem PF024-5UG
T4 sequence (P14780 107-707 limits assumed): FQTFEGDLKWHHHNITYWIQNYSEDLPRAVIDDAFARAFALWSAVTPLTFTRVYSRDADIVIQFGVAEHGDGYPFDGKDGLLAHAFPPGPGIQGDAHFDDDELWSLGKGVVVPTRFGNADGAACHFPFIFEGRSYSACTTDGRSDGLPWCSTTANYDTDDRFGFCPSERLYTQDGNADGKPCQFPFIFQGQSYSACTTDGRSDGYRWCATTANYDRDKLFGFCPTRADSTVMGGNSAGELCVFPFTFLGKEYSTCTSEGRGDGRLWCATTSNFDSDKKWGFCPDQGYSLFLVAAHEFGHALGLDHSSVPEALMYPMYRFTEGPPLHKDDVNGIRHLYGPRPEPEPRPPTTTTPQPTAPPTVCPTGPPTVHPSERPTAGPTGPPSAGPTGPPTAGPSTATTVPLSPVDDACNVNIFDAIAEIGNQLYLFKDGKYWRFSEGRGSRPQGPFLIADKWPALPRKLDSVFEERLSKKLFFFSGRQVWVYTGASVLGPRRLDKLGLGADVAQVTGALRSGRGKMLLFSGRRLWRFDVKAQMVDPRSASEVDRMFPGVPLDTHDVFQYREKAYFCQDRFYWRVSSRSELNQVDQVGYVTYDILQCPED
Procedure: The enzyme MMP-9 (gelatinase B; EC 3.4.24.35, human recombinant, Calbiochem Cat. PF024-5UG) is used. MMP-9 is first activated with APMA for 60 minutes at 37° C. Test compound and/or vehicle is then preincubated for 60 minutes at 37° C. with the active enzyme (11 nM) in a reaction mixture containing 50 mM MOPS (pH 7.2), 10 mM CaCl2 and 10 μM ZnCl2. The reaction is initiated by addition of 4 μM Mca-Pro-Leu-Gly-Leu-Dpa-Ala-Arg-NH2 (SEQ. ID NO. 1) and incubated for 120 minutes at 37° C. Enzyme activity is determined spectrofluorometrically by measuring the formation of fluorescent Mca-Pro-Leu-Gly (SEQ. ID NO. 2). Compounds are screened at 10 μM.

[14] = tested on: TNF-α; assay: LPS induced TNF-α in THP-1 monocytic cells; format: cell-based; conditions: Homo sapiens, LPS 1 μg/mL 24 hours
Procedure: as §2, with “THP-1” for “PBMC”, “TNF-α” for “TNF-α, IL-6 and IL-1β”, “immunoassay from R & D System, Minneapolis, USA.” for “immunoassay. Dexamethasone was used as a positive control in the experiments.”

[15] = tested on: IL-12; assay: IL-12 secretion following LPS stimulation of mouse spleenic macrophages; format: cell-based
Text: Compound 6 of this class inhibited IL-12 production in mouse splenic macrophages stimulated with LPS for 72 hrs.

[16] = tested on: nitric oxide; assay: Nitric oxide secretion following LPS stimulation of mouse spleenic macrophages; format: cell-based; conditions: Macrophage, LPS stimulated mouse spleenic macrophages, read-out: Mice Spleen Cells (% Inhibition) NO

T1 sequence (P78536 215-671 limits assumed): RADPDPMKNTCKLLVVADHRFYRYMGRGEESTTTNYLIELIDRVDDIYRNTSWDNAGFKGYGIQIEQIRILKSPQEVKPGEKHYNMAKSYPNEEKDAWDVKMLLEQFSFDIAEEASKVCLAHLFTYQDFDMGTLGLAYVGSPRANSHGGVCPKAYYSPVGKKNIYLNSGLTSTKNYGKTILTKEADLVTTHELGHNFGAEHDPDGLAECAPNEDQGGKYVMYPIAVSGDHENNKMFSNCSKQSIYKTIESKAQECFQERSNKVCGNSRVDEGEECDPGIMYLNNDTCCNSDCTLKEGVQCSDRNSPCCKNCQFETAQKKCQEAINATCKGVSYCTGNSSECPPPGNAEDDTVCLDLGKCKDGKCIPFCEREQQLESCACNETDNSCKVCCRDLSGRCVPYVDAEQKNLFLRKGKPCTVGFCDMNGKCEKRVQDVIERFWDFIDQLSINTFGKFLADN

Cl.NC(Cc1ccc(Oc2ccc(C(=O)NO)cc2)cc1)C(=O)OCc1ccccc1 (stereo not drawn) [Compound 6, 2-amino-3-[4-(4-hydroxycarbamoylphenoxy)-phenyl]-propionic acid benzyl ester hydrochloric acid salt]
inhibition at 10 µM [1]: 15% | inhibition at 10 µM [2]: 12% | inhibition at 10 µM [3]: 20% | inhibition at 10 µM [4]: 3% | inhibition at 10 µM ([5]; Anti CD3 Abs induced, read-out: Inhibition of T cell proliferation, Anti CD3 Abs): < 80% | inhibition at 10 µM ([5]; CON A induced, read-out: Inhibition of T cell proliferation, CON A): 61 to 80% | inhibition at 10 µM ([5]; IL-2 induced, read-out: Inhibition of T cell proliferation, IL-2): 61 to 80% | inhibition at 10 µM ([5]; IL-4 induced, read-out: Inhibition of T cell proliferation, IL-4): 61 to 80% | inhibition at 10 µM ([5]; KLH specific, lymph nodes of KLH immunized SJL mice, read-out: Inhibition of T cell proliferation, KLH Specific): < 80% | arthritic scores [6]: significantly improved the arthritic scores | inhibition at 50 mg/kg [7]: 50% | inhibition at 50 mg/kg [8]: 30% | inhibition at 10 µM [9]: 97% | inhibition at 10 µM [10]: 73% | Inhibition at 10 μM (%) PDE-4 [11]: 4% | inhibition at 10 µM [12]: 69.6% | inhibition at 10 µM [13]: < 0% | inhibition at 10 µM [14]: 92% | inhibition at 10 µM ([15]; Macrophage, LPS stimulated mouse spleenic macrophages, 10 μM, read-out: Mice Spleen Cells (% Inhibition) IL-12): 80% | IL-12 production ([15]; mouse splenic macrophages stimulated with LPS for 72 hrs): strongly inhibited IL-12 production | inhibition at 10 µM [16]: 20%
